The values that follow come from paper PMC7719162, “Positioning of an unprecedented spiro[5.5]undeca ring system into kinase inhibitor space” (Scientific Reports, 2020).

Like-named read-outs stand apart in the source and are kept apart here.

One assay concerns the target T1, TRKC (G623R/L686M) (Homo sapiens, UniProt Q16288, G623R/L686M).
T1 construct: purchased Reaction Biology Corp
Nature of the assay: Kinase panel assay (radiolabelled). To be noted: 30 μM compound, ATP 10 μM, duplicates Data 1/Data 2. The format is biochemical.

For another assay, the target named is T2, ROCK2 (Homo sapiens, UniProt O75116).
T2 construct: purchased Reaction Biology Corp
T2 sequence (O75116 whole entry): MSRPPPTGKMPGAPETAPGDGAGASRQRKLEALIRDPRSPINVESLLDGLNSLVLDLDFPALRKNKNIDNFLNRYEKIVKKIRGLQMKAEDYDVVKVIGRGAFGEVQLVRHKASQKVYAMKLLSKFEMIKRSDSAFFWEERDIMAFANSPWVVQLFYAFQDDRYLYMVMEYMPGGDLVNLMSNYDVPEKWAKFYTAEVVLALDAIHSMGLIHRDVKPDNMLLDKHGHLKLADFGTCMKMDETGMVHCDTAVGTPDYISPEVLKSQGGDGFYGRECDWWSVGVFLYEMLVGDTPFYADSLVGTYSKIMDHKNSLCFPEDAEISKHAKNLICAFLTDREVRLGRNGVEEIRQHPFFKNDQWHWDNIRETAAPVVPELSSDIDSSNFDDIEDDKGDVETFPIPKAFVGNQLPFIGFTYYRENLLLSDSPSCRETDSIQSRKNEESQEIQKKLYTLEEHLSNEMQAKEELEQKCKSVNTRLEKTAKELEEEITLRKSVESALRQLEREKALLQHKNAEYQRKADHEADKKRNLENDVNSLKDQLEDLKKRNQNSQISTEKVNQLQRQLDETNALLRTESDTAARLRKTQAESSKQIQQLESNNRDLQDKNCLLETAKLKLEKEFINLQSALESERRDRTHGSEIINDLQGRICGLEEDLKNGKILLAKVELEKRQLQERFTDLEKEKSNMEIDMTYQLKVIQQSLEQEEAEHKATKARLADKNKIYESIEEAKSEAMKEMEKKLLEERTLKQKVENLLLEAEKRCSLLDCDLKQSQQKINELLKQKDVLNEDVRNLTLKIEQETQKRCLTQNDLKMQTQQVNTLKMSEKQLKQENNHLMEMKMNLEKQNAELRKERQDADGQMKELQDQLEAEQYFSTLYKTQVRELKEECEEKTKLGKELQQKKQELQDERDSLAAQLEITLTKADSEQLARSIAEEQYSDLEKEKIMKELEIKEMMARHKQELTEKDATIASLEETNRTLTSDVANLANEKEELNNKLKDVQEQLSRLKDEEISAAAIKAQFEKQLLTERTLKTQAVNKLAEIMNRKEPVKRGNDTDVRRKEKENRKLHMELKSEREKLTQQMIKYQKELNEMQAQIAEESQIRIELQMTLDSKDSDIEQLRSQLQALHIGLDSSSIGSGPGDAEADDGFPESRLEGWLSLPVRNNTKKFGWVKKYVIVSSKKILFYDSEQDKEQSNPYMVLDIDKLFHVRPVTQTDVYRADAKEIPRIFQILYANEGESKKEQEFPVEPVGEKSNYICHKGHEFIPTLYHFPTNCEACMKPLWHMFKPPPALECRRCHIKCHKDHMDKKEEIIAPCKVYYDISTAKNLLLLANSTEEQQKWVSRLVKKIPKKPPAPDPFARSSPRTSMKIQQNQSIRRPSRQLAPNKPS
Nature of the assay: Kinase panel assay (radiolabelled). The format is biochemical. The following applies: ATP 10 μM.

In the next assay the target is T3, DAPK2 (Homo sapiens, UniProt Q9UIK4).
T3 construct: purchased Reaction Biology Corp
T3 sequence (Q9UIK4 whole entry): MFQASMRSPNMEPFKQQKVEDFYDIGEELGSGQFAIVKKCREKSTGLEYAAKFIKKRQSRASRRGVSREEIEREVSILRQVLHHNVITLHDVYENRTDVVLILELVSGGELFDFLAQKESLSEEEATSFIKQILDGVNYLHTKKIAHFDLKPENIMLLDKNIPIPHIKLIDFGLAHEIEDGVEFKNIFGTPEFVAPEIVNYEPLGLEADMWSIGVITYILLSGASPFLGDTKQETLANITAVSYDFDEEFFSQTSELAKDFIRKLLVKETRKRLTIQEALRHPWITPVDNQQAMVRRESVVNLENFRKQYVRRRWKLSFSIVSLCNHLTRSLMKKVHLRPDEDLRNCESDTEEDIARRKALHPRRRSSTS
Briefly: Kinase panel assay (radiolabelled). In kind it is biochemical. The following applies: ATP 10 μM.

Another assay addresses T4, PKCa (Homo sapiens, UniProt P17252).
T4 construct: purchased Reaction Biology Corp
Nature of the assay: Kinase panel assay (radiolabelled). In kind it is biochemical. To be noted: ATP 10 μM.

The next assay addresses T5, EIF2AK2 (Homo sapiens, UniProt P19525).
T5 construct: purchased Reaction Biology Corp
Briefly: Kinase panel assay (radiolabelled). In kind it is biochemical. The following applies: 30 μM compound, ATP 10 μM, duplicates Data 1/Data 2.

In assay [1] the target is T6, AMPK(A1/B1/G1) (Homo sapiens, UniProt P54619+Q13131+Q9Y478).
T6 construct: purchased Reaction Biology Corp
Nature of the assay: Kinase panel assay (radiolabelled). To be noted: 30 μM compound, ATP 10 μM; duplicates Data 1/Data 2; read-out: % Enzyme Activity (relative to DMSO controls). The format is biochemical.

Assay [2] concerns the target T7, AMPK(A1/B1/G1) (Homo sapiens, UniProt Q13131).
T7 construct: purchased Reaction Biology Corp
Briefly: Kinase panel assay (radiolabelled). In kind it is biochemical. To be noted: 30 μM compound, ATP 10 μM; duplicates Data 1/Data 2.

Another assay has as its target T8, P38b/MAPK11 (Homo sapiens, UniProt Q15759).
T8 construct: purchased Reaction Biology Corp
Briefly: Kinase panel assay (radiolabelled). The format is biochemical. To be noted: ATP 10 μM.

The target in the next assay is T9, TRKC (Homo sapiens, UniProt Q16288).
T9 construct: purchased Reaction Biology Corp
T9 sequence (Q16288 32-839): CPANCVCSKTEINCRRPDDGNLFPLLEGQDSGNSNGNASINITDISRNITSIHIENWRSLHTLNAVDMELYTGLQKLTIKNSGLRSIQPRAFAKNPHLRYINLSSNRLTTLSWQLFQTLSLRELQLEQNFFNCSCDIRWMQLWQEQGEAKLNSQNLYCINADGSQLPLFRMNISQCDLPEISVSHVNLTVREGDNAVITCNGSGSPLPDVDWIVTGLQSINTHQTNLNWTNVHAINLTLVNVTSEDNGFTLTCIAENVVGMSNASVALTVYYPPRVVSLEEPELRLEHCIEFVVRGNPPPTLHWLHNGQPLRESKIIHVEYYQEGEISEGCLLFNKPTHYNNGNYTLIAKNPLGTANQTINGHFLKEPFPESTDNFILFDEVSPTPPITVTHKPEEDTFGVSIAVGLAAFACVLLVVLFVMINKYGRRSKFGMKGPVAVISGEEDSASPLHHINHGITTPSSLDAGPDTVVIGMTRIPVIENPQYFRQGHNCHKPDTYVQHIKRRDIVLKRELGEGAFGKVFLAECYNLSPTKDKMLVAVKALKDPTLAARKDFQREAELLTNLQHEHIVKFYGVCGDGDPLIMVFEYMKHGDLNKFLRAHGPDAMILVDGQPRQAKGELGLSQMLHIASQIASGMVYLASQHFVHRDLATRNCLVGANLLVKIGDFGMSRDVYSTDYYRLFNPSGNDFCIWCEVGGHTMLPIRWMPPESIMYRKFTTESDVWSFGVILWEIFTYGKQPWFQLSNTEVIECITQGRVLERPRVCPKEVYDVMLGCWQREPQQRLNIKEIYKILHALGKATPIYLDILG
Nature of the assay: Kinase panel assay (radiolabelled). In kind it is biochemical. The following applies: ATP 10 μM.

Another assay deals with T10, DNA-PK (Homo sapiens, UniProt P78527).
T10 construct: purchased Reaction Biology Corp
Briefly: Kinase panel assay (radiolabelled). In kind it is biochemical. The following applies: 30 μM compound, ATP 10 μM, duplicates Data 1/Data 2.

The target of another assay is T11, ARK5/NUAK1 (Homo sapiens, UniProt O60285).
T11 construct: purchased Reaction Biology Corp
T11 sequence (O60285 1-661): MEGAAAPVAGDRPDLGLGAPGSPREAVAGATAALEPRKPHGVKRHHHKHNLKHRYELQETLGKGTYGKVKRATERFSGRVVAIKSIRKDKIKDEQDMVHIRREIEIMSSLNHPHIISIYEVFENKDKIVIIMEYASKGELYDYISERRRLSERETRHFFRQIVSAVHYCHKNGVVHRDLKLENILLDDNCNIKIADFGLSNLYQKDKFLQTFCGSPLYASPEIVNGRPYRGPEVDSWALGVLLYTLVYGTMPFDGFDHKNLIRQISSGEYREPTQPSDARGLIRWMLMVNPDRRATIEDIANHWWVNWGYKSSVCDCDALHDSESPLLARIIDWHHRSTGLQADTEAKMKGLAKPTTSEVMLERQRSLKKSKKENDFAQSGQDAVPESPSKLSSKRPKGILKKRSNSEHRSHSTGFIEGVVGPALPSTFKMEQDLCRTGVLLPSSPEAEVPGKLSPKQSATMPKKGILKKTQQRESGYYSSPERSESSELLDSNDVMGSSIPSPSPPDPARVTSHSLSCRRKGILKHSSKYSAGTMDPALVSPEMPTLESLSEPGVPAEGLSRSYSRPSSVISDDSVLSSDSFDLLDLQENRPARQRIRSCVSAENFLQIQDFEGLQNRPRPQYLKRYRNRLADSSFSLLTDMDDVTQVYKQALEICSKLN
To be noted: cited from earlier work.

In the next assay the target is T12, GSK3b (Homo sapiens, UniProt P49841).
T12 construct: purchased Reaction Biology Corp
T12 sequence (P49841 whole entry): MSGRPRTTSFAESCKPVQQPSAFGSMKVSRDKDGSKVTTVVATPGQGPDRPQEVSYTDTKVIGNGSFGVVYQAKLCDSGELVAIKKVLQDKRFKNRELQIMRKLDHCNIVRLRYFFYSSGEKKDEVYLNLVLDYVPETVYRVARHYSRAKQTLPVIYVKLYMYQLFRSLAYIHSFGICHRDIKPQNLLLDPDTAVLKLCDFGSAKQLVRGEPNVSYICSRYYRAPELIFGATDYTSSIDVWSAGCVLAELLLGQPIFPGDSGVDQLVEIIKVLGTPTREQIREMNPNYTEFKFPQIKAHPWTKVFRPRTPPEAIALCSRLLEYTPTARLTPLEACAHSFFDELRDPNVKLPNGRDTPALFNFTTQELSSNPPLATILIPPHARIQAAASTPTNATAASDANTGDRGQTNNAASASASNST
To be noted: cited from earlier work.

Another assay addresses T13, TLK1 (Homo sapiens, UniProt Q9UKI8).
T13 construct: purchased Reaction Biology Corp
T13 sequence (Q9UKI8 1-766): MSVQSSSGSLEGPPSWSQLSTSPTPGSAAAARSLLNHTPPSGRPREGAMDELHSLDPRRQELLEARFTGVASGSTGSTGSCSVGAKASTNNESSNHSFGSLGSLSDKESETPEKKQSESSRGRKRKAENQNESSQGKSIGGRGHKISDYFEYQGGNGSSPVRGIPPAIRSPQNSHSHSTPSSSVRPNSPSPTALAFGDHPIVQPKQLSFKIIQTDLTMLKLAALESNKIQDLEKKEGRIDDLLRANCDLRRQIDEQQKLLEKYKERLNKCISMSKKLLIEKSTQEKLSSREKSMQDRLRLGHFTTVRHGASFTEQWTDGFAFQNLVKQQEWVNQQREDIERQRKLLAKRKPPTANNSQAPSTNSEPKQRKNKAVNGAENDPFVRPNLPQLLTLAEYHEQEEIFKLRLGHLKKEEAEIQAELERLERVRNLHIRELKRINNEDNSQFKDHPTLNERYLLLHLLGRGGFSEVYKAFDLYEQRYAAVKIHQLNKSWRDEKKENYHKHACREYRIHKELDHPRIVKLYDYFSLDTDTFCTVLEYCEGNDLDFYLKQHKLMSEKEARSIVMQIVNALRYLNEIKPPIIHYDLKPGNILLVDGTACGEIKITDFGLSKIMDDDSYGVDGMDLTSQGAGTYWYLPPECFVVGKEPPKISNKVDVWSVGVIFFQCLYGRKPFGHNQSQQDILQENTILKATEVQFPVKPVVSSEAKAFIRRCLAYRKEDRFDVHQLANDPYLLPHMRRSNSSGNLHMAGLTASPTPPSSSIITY
The following applies: cited from earlier work.

[3] abbreviates: read-out: % Enzyme Activity (relative to DMSO controls).
[4] abbreviates: 30 μM compound, duplicates Data 1/Data 2.
Where [5] appears, read: 30 μM compound, duplicates Data 1/Data 2, read-out: % Enzyme Activity (relative to DMSO controls).
Where [6] appears, read: 30 μM, average ± SD, read-out: % Residual Activity at 30 μM.

T8 sequence (Q15759 whole entry): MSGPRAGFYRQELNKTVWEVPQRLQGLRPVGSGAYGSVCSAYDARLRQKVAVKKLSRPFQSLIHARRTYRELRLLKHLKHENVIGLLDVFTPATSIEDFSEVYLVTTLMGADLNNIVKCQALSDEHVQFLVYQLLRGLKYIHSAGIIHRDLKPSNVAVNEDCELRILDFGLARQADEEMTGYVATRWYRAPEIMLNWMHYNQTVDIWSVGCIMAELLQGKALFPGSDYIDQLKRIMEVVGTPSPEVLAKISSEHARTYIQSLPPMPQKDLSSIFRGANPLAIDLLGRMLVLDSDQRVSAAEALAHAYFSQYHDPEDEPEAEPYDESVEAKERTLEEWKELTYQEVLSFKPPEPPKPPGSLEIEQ
T5 sequence (P19525 whole entry): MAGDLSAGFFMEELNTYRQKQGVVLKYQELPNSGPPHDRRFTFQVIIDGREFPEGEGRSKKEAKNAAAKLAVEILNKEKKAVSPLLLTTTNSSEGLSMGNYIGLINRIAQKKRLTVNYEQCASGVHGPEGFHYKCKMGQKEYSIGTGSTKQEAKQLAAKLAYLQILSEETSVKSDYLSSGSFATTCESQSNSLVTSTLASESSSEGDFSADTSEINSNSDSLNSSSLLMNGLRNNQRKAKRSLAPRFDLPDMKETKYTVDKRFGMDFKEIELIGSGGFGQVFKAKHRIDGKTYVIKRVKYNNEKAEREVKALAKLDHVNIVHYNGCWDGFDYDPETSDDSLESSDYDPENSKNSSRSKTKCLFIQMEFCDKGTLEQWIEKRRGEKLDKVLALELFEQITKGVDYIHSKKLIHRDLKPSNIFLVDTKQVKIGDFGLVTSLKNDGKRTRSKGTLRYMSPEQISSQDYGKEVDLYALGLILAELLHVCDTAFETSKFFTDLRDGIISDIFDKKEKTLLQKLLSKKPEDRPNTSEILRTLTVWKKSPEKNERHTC
T1 sequence (Q16288 32-839 G623R/L686M): as the sequence (Q16288 32-839) above, with G592R, L655M counted along it

On to `O=C1C=CC2(C=C1)OCC(Cc1cn(-c3cccc(Cl)c3)nn1)C(=O)N2c1ccccc1` (stereo not drawn) [2d, 3-((1-(3-Chlorophenyl)-1H-1,2,3-triazol-4-yl)methyl)-5-phenyl-1-oxa-5-azaspiro[5.5]undeca-7,10-diene-4,9-dione], for which the “% Enzyme Activity (relative to DMSO controls)” value at TRKC (G623R/L686M) was determined as 95.31%; on ROCK2 (setting [4]), 98.38%; at DAPK2 (setting [4]), 109.81%; on PKCa (setting [4]), 62.24%; at EIF2AK2, 100.73%; at AMPK(A1/B1/G1) [2] it was 60.04%. Besides, the “% Enzyme Activity (relative to DMSO controls)” value at P38b/MAPK11 (setting [4]) was 109.52%; on TRKC (setting [4]), 102.60%; on DNA-PK it was 101.60%. Further, the remaining activity at 30 µM on TRKC (G623R/L686M) (setting [3]) stood at 96%; on ROCK2 (setting [5]) it was 100%; on ROCK2 (setting [6]), 99.4 ± 1.5%; on DAPK2 (setting [5]), 111%; on DAPK2 (setting [6]), 110.2 ± 0.6%; at PKCa (setting [5]), 63%. Further, the remaining activity at 30 µM on PKCa (setting [6]) turned out to be 62.6 ± 0.5%; at EIF2AK2 (setting [3]) it was 101%; at AMPK(A1/B1/G1) [1] it was 60.9%; at P38b/MAPK11 (setting [5]) it was 110%; on P38b/MAPK11 (setting [6]), 109.9 ± 0.5%; at TRKC (setting [5]), 108%. Also, the results for the remaining activity at 30 µM on TRKC (setting [6]) and on DNA-PK (setting [3]) were 105 ± 3.9% and 103%, respectively.

With `O=C1C=CC2(C=C1)OCC(Cc1cc(C(F)(F)F)cc(C(F)(F)F)c1)C(=O)N2c1ccccc1` (racemic) [1c], the “% Residual Activity at 30 μM” value at ARK5/NUAK1 is given as 70.8 ± 0.1%; at GSK3b it was 107.5 ± 1.9%; on TLK1, 58.0 ± 0.9%. The “inhibitory activity on GSK-3β” value at GSK3b (30 μM) is given as “did not show any inhibitory activity”.
